Columns and labels:
CDK9/cyclin T1 = CDK9/cyclin T1 (Homo sapiens, UniProt P50750); assay: Assay of kinase activity (ADP-Glo); assay type: biochemical; details: kinase inhibitory activity
Method: (§1) CDK/cyclin catalyzes the phosphorylation of a substrate, which concomitantly consumes ATP and produces ADP. The inhibition rate (%) in the presence of a small molecule inhibitor was assessed by measuring the amount of ADP generated in the reaction. The assay compounds were thoroughly mixed by vortexing and then diluted in DMSO to 100× the assay concentration. 40 nL of a compound was transferred to a 384-well assay plate using a nanoliter pipetting system (ECHO® 655 SYSTEM). A 2× kinase solution was prepared using a 1× kinase reaction buffer (50 mM Hepes, 10 mM MgCl2, 0.01% Brij35, 2 mM DTT). 2 µL of the kinase solution was transferred to the 384-well assay plate, and the plate was centrifuged at 1000 rpm for 60 seconds in a microplate centrifuge. The plate was incubated at 25 °C in a biochemical incubator for 10 minutes. A 2x mixture of substrate and ATP was prepared in the kinase reaction buffer. Then, 2 µL of the mixture of substrate and ATP was added to the 384-well assay plate. The plate was centrifuged at 1000 rpm for 60 seconds in a microplate centrifuge, and incubated at 25 °C in a biochemical incubator for 60 minutes. 4 µL of ADP-Glo Reagent (Cat. No. V9103, manufacturer: Promega) incubated at 25 °C in a biochemical incubator was added to each well of the 384-well assay plate. The plate was centrifuged at 1000 rpm for 60 seconds in a microplate centrifuge, and incubated at 25 °C in a biochemical incubator for 40 minutes. 8 µL of Detection Reagent incubated at 25 °C in a biochemical incubator was added to each well of the 384-well assay plate. The plate was centrifuged at 1000 rpm for 60 seconds in a microplate centrifuge, and incubated at 25 °C in a biochemical incubator for 40 minutes. Finally, luminescence signals were read using a multifunctional microplate reader (model: PHERAstar FSX, manufacturer: BMG). IC50 values were calculated by nonlinear fitting of the concentration-response curves using GraphPad Prism software.

CDK6/cyclin D3 = CDK6/cyclin D3 (Homo sapiens, UniProt Q00534); assay: Assay of kinase activity (ADP-Glo); assay type: biochemical; details: kinase inhibitory activity
Method: as §1

[1] = test system: human gastric cancer MKN1 cells; assay: Assay of cell proliferation (CellTiter-Glo); assay type: cell-based; details: Homo sapiens, MKN-1, 144 h; MNK1, 6 days; read-out: MKN1 IC50 of cell proliferation inhibitory activity
Method: (§2) Human ovarian cancer OVCAR3 cells were inoculated at 2000 cells/well in a 96-well plate and cultured in RPMI 1640 medium containing 20% FBS at 37 °C and 5% CO2 overnight in an incubator. The next day, the compounds were subjected to a three-fold gradient dilution in DMSO from a peak concentration of 2 mM to give nine concentrations. Then, the compounds were diluted 3:200 in growth medium, and finally diluted 1:3 in the cell culture supernatant to give a culture supernatant containing 0.5% DMSO, with the compounds treatment concentrations ranging from 10 µM to 0.1 nM. The cells and the compounds were incubated at 37 °C and 5% CO2 for 6 days. Then, cell proliferation assay was performed using the CellTiter-Glo (manufacturer: Promega, Cat. No. G9242), and luminescence signals were read using a multifunctional microplate reader (model: Synergy H1, manufacturer: BiotTek). IC50 values were calculated by fitting of the concentration-response curves with a four-parameter analysis method using GraphPad Prism software.
(§3) The cell proliferation assays of human colon cancer HCT-116 cells, human breast cancer MCF-7 cells, human breast cancer HCC1806 cells, human acute myeloid leukemia MV-4-11 cells, and human gastric cancer MKN1 cells were performed according to the same method, with different inoculation densities set according to different cell growth characteristics.

[2] = test system: human breast cancer HCC1806 cells; assay: Assay of cell proliferation (CellTiter-Glo); assay type: cell-based; details: Homo sapiens, 144 h, 6 days, read-out: HCC1806 IC50 of cell proliferation inhibitory activity
Method: as §2, §3

[3] = test system: human acute myeloid leukemia MV-4-11 cells; assay: Assay of cell proliferation (CellTiter-Glo); assay type: cell-based; details: MV4-11, 144 h, 6 days, read-out: MV-4-11 IC50 of cell proliferation inhibitory activity
Method: as §2, §3

CDK4/cyclin D1 = CDK4/cyclin D1 (Homo sapiens, UniProt P11802); assay: Assay of kinase activity (ADP-Glo); assay type: biochemical; details: kinase inhibitory activity
Method: as §1, with “40 nL of a compound was transferred to a 384-well assay plate using a nanoliter pipetting system (ECHO® 655 SYSTEM).” left out

CDK2/cyclin E = CDK2/cyclin E (Homo sapiens, UniProt P24941); assay: Assay of kinase activity (ADP-Glo); assay type: biochemical; details: kinase inhibitory activity, read-out: CDK2/E1 IC50
Method: as §1, with “40 nL of a compound was transferred to a 384-well assay plate using a nanoliter pipetting system (ECHO® 655 SYSTEM).” left out

[4] = test system: Human ovarian cancer OVCAR3 cells; assay: Assay of cell proliferation (CellTiter-Glo); assay type: cell-based; details: Homo sapiens, OVCAR-3, 144 h, 6 days, read-out: OVCAR3 IC50 of cell proliferation inhibitory activity
Method: as §2

CDK6/cyclin D3, sequence (Q00534 whole entry, species assumed): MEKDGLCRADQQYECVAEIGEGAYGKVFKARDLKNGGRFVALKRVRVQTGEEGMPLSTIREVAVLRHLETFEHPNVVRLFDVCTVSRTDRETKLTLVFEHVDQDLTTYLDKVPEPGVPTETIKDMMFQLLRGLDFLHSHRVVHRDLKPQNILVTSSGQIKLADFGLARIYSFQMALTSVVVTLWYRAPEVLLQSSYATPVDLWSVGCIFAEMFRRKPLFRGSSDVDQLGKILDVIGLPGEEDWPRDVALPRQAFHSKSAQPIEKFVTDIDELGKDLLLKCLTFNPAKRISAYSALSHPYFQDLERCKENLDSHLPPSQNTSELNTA
CDK6/cyclin D3, sequence (P30281 whole entry partner, species assumed): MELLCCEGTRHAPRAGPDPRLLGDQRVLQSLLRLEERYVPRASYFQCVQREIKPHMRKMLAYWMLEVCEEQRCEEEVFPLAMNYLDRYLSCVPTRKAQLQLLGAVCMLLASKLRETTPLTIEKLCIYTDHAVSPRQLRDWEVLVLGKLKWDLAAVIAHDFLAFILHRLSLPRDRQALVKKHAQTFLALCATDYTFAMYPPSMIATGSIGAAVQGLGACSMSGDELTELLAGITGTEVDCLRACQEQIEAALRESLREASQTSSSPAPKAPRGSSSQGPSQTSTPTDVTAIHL
CDK4/cyclin D1, sequence (P11802 whole entry, species assumed): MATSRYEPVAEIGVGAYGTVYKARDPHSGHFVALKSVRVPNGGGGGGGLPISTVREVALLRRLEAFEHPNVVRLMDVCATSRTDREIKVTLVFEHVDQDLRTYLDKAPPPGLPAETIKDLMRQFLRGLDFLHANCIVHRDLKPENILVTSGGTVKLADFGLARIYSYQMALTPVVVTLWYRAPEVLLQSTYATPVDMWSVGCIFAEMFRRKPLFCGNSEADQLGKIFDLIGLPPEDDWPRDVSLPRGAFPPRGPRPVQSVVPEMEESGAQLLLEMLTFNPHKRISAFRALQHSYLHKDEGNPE
CDK4/cyclin D1, sequence (P24385 whole entry partner, species assumed): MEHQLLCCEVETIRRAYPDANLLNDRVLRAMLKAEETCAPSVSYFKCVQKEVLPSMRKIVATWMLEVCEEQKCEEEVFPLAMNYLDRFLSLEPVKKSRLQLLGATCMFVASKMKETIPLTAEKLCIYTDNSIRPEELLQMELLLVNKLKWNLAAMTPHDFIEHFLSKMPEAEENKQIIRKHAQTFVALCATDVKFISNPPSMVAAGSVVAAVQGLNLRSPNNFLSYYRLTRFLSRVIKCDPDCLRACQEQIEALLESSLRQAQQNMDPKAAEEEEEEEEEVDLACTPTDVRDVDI
CDK9/cyclin T1, sequence (P50750 whole entry, species assumed): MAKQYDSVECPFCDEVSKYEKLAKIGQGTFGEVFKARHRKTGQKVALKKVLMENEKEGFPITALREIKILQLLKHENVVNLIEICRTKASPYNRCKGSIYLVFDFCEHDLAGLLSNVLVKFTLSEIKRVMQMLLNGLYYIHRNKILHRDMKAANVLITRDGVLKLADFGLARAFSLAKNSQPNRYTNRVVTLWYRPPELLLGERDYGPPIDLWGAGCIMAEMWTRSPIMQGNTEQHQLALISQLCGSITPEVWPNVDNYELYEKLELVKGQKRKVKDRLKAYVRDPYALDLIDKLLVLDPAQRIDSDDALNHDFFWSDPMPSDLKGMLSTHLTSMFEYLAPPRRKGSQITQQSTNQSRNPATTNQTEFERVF
CDK9/cyclin T1, sequence (O60563 whole entry partner, species assumed): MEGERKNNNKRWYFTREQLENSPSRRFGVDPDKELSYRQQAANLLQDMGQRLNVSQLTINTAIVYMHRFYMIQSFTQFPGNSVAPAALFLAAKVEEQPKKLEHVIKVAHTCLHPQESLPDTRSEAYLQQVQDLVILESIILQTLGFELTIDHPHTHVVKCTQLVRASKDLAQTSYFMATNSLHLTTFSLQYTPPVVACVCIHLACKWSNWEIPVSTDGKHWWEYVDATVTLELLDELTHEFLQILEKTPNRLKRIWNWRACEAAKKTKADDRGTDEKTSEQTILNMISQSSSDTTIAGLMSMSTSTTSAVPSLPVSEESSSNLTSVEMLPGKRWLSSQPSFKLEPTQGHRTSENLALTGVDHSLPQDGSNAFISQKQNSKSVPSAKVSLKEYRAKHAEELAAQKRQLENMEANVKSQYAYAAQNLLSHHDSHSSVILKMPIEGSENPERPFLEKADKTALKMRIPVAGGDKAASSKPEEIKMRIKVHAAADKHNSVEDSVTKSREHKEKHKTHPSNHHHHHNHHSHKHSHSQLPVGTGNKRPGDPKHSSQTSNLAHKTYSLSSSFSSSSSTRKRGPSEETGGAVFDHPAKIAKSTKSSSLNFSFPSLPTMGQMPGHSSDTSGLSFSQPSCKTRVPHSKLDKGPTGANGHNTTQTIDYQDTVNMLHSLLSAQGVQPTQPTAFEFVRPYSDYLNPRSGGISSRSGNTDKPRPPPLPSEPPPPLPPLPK

| Structure (SMILES) | IC50 (CDK9/cyclin T1) [nM] | IC50 (CDK6/cyclin D3) [nM] | IC50 [1] [nM] | IC50 [2] [nM] | IC50 [3] [nM] | IC50 (CDK4/cyclin D1) [nM] | IC50 (CDK2/cyclin E) [nM] | IC50 [4] [nM] |
| --- | --- | --- | --- | --- | --- | --- | --- | --- |
| CC(C)n1nnc2ccc3cnc(Nc4ccc(C(=O)N5CC6CC(C5)N6)cc4)nc3c21 [Example I-24, (3,6-Diazabicyclo[3.1.1]heptan-3-yl)(4-((1-isopropyl-1H-[1,2,3]triazolo[4,5-H]quinazolin-8-yl)amino)phenyl)metha none] | 8 | 26 | 6 | 44 | 3 | 1 | 0.1 | 18 |
| CC(C)n1nnc2ccc3cnc(Nc4ccc(C(=O)N5CCC(N(C)C)CC5)c(F)c4)nc3c21 [Example I-17, (4-(Dimethylamino)piperidin-1-yl)(2-fluoro-4-((1-isopropyl-1H-[1,2,3]triazolo[4,5-H]quinazolin-8-yl)amino)phenyl)metha none] | 60 | 190 | 46 | 319 | 12 | 2 | 0.8 | 93 |
| CC(C)n1nnc2ccc3cnc(Nc4ccc(C(=O)N5CC6CCC(C5)N6)cc4)nc3c21 [Example I-25, (3,8-Diazabicyclo[3.2.1]octan-3-yl)(4-((1-isopropyl-1H-[1,2,3]triazolo[4,5-H]quinazolin-8-yl)amino)phenyl)metha none] | 16 | 29 | 13 | 85 | 4 | 1 | 0.2 | 33 |
| CC(C)n1nnc2ccc3cnc(Nc4ccc(C(=O)N5C[C@@H](C)N[C@@H](C)C5)cc4)nc3c21 [Example I-23, ((3R,5S)-3,5-dimethylpiperazin-1-yl)(4-((1-isopropyl-1H-[1,2,3]triazolo[4,5-H]quinazolin-8-yl)amino)phenyl)metha none] | 24 | 35 | 57 | 112 | 4 | 3 | 0.4 | 73 |
| CN1CCN(C(=O)c2ccc(Nc3ncc4ccc5nnn([C@@H]6CCC[C@@]6(C)O)c5c4n3)cc2)CC1 [Example I-66, (4-((1-((1R,2R)-2-Hydroxy-2-methylcyclopentyl)-1H-[1,2,3]triazolo[4,5-H]quinazolin-8-yl)amino)phenyl)(4-methylpiperazin-1-yl)methanone] | 6 | 15 | 8 | 93 | 2 | 1 | 0.8 | 17 |
| C[C@@H](n1nnc2ccc3cnc(Nc4ccc(C(=O)N5CCN(C)CC5)cc4)nc3c21)C(C)(C)O [Example I-57, (R)-(4-((1-(3-Hydroxy-3-methylbutan-2-yl)-1H-[1,2,3]triazolo[4,5-H]quinazolin-8-yl)amino)phenyl)(4-methylpiperazin-1-yl)methanone] | 23 | 4 | 17 | 465 | 11 | 1 | 0.9 | 32 |

More lines, now with the values ahead:

| IC50 (CDK9/cyclin T1) [nM] | IC50 (CDK6/cyclin D3) [nM] | IC50 [1] [nM] | IC50 [2] [nM] | IC50 [3] [nM] | IC50 (CDK4/cyclin D1) [nM] | IC50 (CDK2/cyclin E) [nM] | IC50 [4] [nM] | Structure (SMILES) |
| --- | --- | --- | --- | --- | --- | --- | --- | --- |
| 2 | 6 | 29 | 122 | 4 | 0.7 | 0.08 | 148 | CC(C)n1nnc2ccc3cnc(Nc4ccc(C(=O)N5CC[C@@H](N(C)C)C5)cc4)nc3c21 [Example I-11, (R)-(3-(Dimethylamino)pyrrolidin-1-yl)(4-((1-isopropyl-1H-[1,2,3]triazolo[4,5-H]quinazolin-8-yl)amino)phenyl)metha none] |
| 4 | 23 | 56 | 115 | 5 | 4 | 2 | 27 | CC(C)n1nnc2ccc3cnc(Nc4ccc(C(=O)N5CCNC(C)(C)C5)cc4)nc3c21 [Example I-22, (3,3-Dimethylpiperazin-1-yl)(4-((1-isopropyl-1H-[1,2,3]triazolo[4,5-H]quinazolin-8-yl)amino)phenyl)metha none] |
| 9 | 6 | 3 | 18 | 2 | 1 | 0.9 | 5 | C[C@@]1(O)CCC[C@H]1n1nnc2ccc3cnc(Nc4ccc(S(=O)(=O)NCCO)cc4)nc3c21 [Example I-71] |
| 7 | 10 | 11 | 53 | 3 | 0.8 | 0.07 | 12 | CC(C)n1nnc2ccc3cnc(Nc4ccc(C(=O)N5CC[C@@H](N)C5)cc4)nc3c21 [Example I-5, (R)-(3-Aminopyrrolidin-1-yl)(4-((1-isopropyl-1H-[1,2,3]triazolo[4,5-H]quinazolin-8-yl)amino)phenyl)metha none] |
| 3 | 4 | 8 | 54 | 5 | 0.5 | 0.08 | 28 | C[C@@]1(O)CCC[C@H]1n1nnc2ccc3cnc(Nc4ccc(C(=O)N5CC[C@H](N)C5)cc4)nc3c21 [Example I-62, ((S)-3-Aminopyrrolidin-1-yl)(4-((1-((1R,2R)-2-hydroxy-2-methylcyclopentyl)-1H-[1,2,3]triazolo[4,5-H]quinazolin-8-yl)amino)phenyl)methanone] |
| 25 | 35 | 129 | 247 | 23 | 5 | 2 | 214 | CC(C)n1nnc2ccc3cnc(Nc4ccc(C(=O)N5CCC(F)CC5)cc4)nc3c21 [Example I-18, (4-Fluoropiperidin-1-yl)(4-((1-isopropyl-1H-[1,2,3]triazolo[4,5-H]quinazolin-8-yl)amino)phenyl)metha none] |
